Laboratory results published in article PMC3717276, “Optimization and validation of mitochondria-based functional assay as a useful tool to identify BH3-like molecules selectively targeting anti-apoptotic Bcl-2 proteins” (BMC Biotechnology, 2013).
Ends that are not written are not given here.

Tests used:
[1] = test system: mitochondria isolated from 2LMP cells; experiment: Permeabilization of mitochondrial outer membrane (MOMP), Cytochrome C and Smac release by Western blot; assay type: biochemical, human; conditions: agent alone at indicated concentrations, 100 mM KCl buffer, 37°C, 60 min, Figure 3A
Description: Mitochondria were isolated from breast cancer cells. Cells were harvested by centrifugation at 1200 g (Microcentrifuge 5415R from Eppendorf) for 5 min at 4°C and then washed with ice-cold PBS. Cell pellets were resuspended in 400 μl of mitochondria isolation buffer (MIB: pH 7.4; 0.1 mM EDTA, 10 mM Tris–HCl, 250 mM Sucrose) freshly added 1 mM PMSF and Protease Inhibitor Cocktail (Roche). Cell suspensions were then homogenized with 40 strokes in a Dounce Tissue Grinder on ice and centrifuged at 1200 g for 10 min at 4°C. Supernatants were centrifuged at 12000 g for 10 min at 4°C. Pellet enriched in mitochondria was washed three times with MIB, spun down at 12000 g for 10 min at 4°C. […] Protein concentrations were determined using Bradford Protein Assay (Protein Assay Kit II, Cat# 500–0002, Bio-Rad). […]
Supernatant samples and mitochondrial pellet samples were subjected to protein separation by SDS-PAGE. After transfer to Polyvinylidene fluoride (PVDF) membranes, Cytochrome C, Smac proteins and loading control (Cytochrome C Oxidase IV, COX IV) were analyzed using the following primary antibodies: anti-Cytochrome C polyclonal antibody (1:500; #4272; Cell Signaling Techonology), anti-Smac/DIABLO polyclonal antibody (1:500; PC574; Calbiochem), anti-COX IV monoclonal antibody (3E11; 1:1000; #4850; Cell Signaling Techonology). […]

[2] = target: T1, Mcl-1 (Homo sapiens, UniProt Q07820); experiment: SPR competitive solution binding assay (immobilized Bim BH3 peptide); conditions: read-out: SPR Mcl-1 IC50[nM] ± SD
T1 construct: encoding amino acid residues of 171–327; 8xHis (pHis-TEV vector) (N); made in house; host or cells: E. coli BL21(DE3)
Description: The Mcl-1fragment (NM_021960) encoding amino acid residues of 171–327 was cloned into the pHis-TEV vector. Mcl-1 protein with an N-terminal 8×His tag was produced in E. coli BL21(DE3).
(§1) Determination of kon, koff and Kd were calculated by simultaneous non-linear regression using BIAevaluation software (BIAcore Life Sciences).
(§2) IC50 values were determined by Non-linear Least Squares analysis using Graph Pad Prism 5.0 software.

[3] = target: T1, Mcl-1; experiment: FP competitive binding assay (FAM-Bid tracer); conditions: read-out: FP assay Mcl-1 Ki[nM] ± SD
Description: After 2–3 hours incubation, the polarization values in milipolarization units (mP) were measured at an excitation wavelength of 485 nm and an emission wavelength of 530 nm using the Synergy H1 Hybrid Microplate Reader (BioTek).

[4] = target: T2, Bcl-xL (Homo sapiens, UniProt Q07817, DEL45-85); experiment: SPR competitive solution binding assay (immobilized Bim BH3 peptide); conditions: read-out: SPR Bcl-xL IC50[nM] ± SD
T2 construct: 8xHis (pHis-TEV vector) (N); made in house; host or cells: E. coli BL21(DE3)
Description: Lysis buffer contained 50 mM Tris, pH 7.5, 200 mM NaCl, 0.1% BME and Leupectin/Aprotin, while protein was eluted in buffer containing 20 mM Tris, pH7.5, 150 mM NaCl and 5 mM DTT.
as §1, §2

[5] = target: T2, Bcl-xL; experiment: FP competitive binding assay (FAM-Bak tracer); conditions: read-out: FP assay Bcl-xL Ki[nM] ± SD

T1 sequence (Q07820 171-327): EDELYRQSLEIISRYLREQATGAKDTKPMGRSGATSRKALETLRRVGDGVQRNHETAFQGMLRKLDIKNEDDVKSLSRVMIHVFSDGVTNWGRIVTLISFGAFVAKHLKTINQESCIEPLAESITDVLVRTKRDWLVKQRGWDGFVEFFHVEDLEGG
T2 sequence (Q07817 with tags, fused parts or gaps DEL45-85): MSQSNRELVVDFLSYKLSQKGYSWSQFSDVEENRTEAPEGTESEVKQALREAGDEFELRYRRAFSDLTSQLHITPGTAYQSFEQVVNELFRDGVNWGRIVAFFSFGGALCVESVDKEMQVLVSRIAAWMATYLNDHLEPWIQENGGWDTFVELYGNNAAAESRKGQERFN

In the case of `CN(C)CC[C@H](CSc1ccccc1)Nc1ccc(S(=O)(=O)NC(=O)c2ccc(N3CCN(Cc4ccccc4-c4ccc(Cl)cc4)CC3)cc2)cc1[N+](=O)[O-]` [ABT-737], the “Cytochrome C and Smac release from 2LMP mitochondria” value [1] is reported as “effectively induced Cytochrome C and Smac release”.

`CSCC[C@H](NC(=O)[C@H](CCCNC(=N)N)NC(=O)[C@H](CCCNC(=N)N)NC(=O)[C@H](CC(C)C)NC(=O)[C@H](CCC(=O)O)NC(=O)[C@H](CCCNC(=N)N)NC(=O)CNC(=O)[C@H](Cc1ccc(O)cc1)NC(=O)[C@H](CCCNC(=N)N)NC(=O)[C@H](CCC(N)=O)NC(=O)[C@H](C)NC(=O)[C@H](C)NC(=O)[C@H](Cc1c[nH]c2ccccc12)NC(=O)[C@H](CC(C)C)NC(=O)[C@@H](N)CC(N)=O)C(=O)N[C@@H](CO)C(=O)N[C@@H](CC(=O)O)C(=O)N[C@@H](CCC(=O)O)C(=O)N[C@@H](Cc1ccccc1)C(=O)N[C@H](C(=O)N[C@@H](CC(=O)O)C(=O)N[C@@H](CO)C(=O)N[C@@H](Cc1ccccc1)C(=O)N[C@@H](CCCCN)C(=O)N[C@@H](CCCCN)C(=O)NCC(=O)O)C(C)C` [Bad] gave an IC50 [2] of over 30000 nM and a Ki [3] of over 20000 nM.

PAELEVECATQLRRFGDKLNFRQKLL [Noxa] gave an IC50 [4] of over 30000 nM and a Ki [5] of over 10000 nM.
